From US9637490B2, “Antifungal 5,6-dihydro-4-[(difluoroethyl)phenyl]-4H-pyrrolo[1,2-α][1,4]benzodiazepine and 4-(difluoroethyl)phenyl-6H-pyrrolo[1,2-α][1,4]benzodiazepine derivatives” (Janssen Pharmaceutica NV, priority 2010, dated 2017)

Experiments:
[1] = tested on: Trichophyton mentagrophytes B70554; test: Antifungal activity in vitro (resazurin susceptibility screen), Inf. G; assay type: cell-based; settings: 27 °C, 7 days, resa time 24 hours; for pIC50 Inf. G: Trichophyton mentagrophytes B70554; for IC50: Trichophyton mentagrophytes, B70554, Trichophyton mentagrophytes B70554
Method: (§1) The standard susceptibility screen was performed in 96-well plates (U-bottom, Greiner Bio-One). Serial dilutions (2-fold or 4-fold) of 20 mM compound stock solutions were made in 100% DMSO, followed by an intermediate dilution step in water. These serial dilutions (10 μl) were then spotted onto test-plates that could be stored in the dark at 4° C. for a maximum period of 2 weeks. An adequate broad dose-range was included with 64 μM as the highest in-test concentration. The culture medium RPMI-1640 was supplemented with L-glutamine, 2% glucose and buffered with 3-(N-morpholino)-propanesulfonic acid (MOPS) at pH 7.0±0.1. The different fungal species/isolates (Table 3a) were cryopreserved and 1/1000 diluted in medium just prior to use. A standard inoculum of 200 μl containing 10^3 colony-forming unit (cfu) was then added to each well. A positive control (100% growth=fungal culture without antifungal) and a negative control (0% growth=RPMI-MOPS medium) were included on each plate. Optimal incubation time and temperature were dependent on the fungal species and vary from 24 h for yeasts (37° C.) to one week or more for dermatophytes (27° C.). Inhibition of fungal growth was measured after adding 10 μl of 0.005% (w/v) resazurin (Sigma Aldrich) to each well, based on the principle that living cells convert the non-fluorescent blue resazurin into the pink and fluorescent resorufin, allowing fluorimetric reading (λhd ex 550 nm and μem 590 nm) after an additional incubation period (‘resa’ time mentioned in Table 3a). [table]

[2] = tested on: Cryptococcus neoformans B66663; test: Antifungal activity in vitro (resazurin susceptibility screen), Inf. F; assay type: cell-based; settings: 37 °C, 24 hours, resa time 4 hours; for pIC50 Inf. F: Cryptococcus neoformans B66663; for IC50: Cryptococcus neoformans, B66663, Cryptococcus neoformans B66663
Method: as §1

Microsporum canis B68128 = test: Antifungal activity in vitro (resazurin susceptibility screen), Inf. B; assay type: cell-based; settings: 27 °C, 9 days, resa time 24 hours; for pIC50 Inf. B: Microsporum canis B68128; for IC50: Microsporum canis, B68128, Microsporum canis B68128
Method: as §1

[3] = tested on: Trichophyton rubrum B68183; test: Antifungal activity in vitro (resazurin susceptibility screen), Inf. C; assay type: cell-based; settings: 27 °C, 7 days, resa time 24 hours; for pIC50 Inf. C: Trichophyton rubrum B68183; for IC50: Trichophyton rubrum, B68183, Trichophyton rubrum B68183
Method: as §1

[4] = tested on: Rhizomucor miehei IHEM13391; test: Antifungal activity in vitro (resazurin susceptibility screen), Inf. K; assay type: cell-based; settings: 37 °C, 48 hours, resa time 17 hours; for IC50: Rhizomucor miehei, IHEM13391, Rhizomucor miehei IHEM13391
Method: as §1

[5] = tested on: Sporothrix schenkii B62482; test: Antifungal activity in vitro (resazurin susceptibility screen), Inf. A; assay type: cell-based; settings: 27 °C, 4 days, resa time 24 hours; for pIC50 Inf. A: Sporothrix schenkii B62482; for IC50: Sporothrix, B62482, Sporothrix schenkii B62482
Method: as §1

[6] = tested on: Aspergillus fumigatus B42928; test: Antifungal activity in vitro (resazurin susceptibility screen), Inf. E; assay type: cell-based; settings: 27 °C, 48 hours, resa time 17 hours; for pIC50 Inf. E: Aspergillus fumigatus B42928; for IC50: Aspergillus fumigatus, B42928, Aspergillus fumigatus B42928
Method: as §1

[7] = tested on: Scedosporium apiospermum IHEM3817; test: Antifungal activity in vitro (resazurin susceptibility screen), Inf. H; assay type: cell-based; settings: 37 °C, 48 hours, resa time 17 hours; for IC50: Scedosporium apiospermum, IHEM3817, Scedosporium apiospermum IHEM3817
Method: as §1

[8] = tested on: Candida parapsilosis B66126; test: Antifungal activity in vitro (resazurin susceptibility screen), Inf. D; assay type: cell-based; settings: 37 °C, 24 hours, resa time 4 hours; for pIC50 Inf. D: Candida parapsilosis B66126; for IC50: Lodderomyces parapsilosis, B66126, Candida parapsilosis B66126
Method: as §1

[9] = tested on: Scedosporium prolificans IHEM21157; test: Antifungal activity in vitro (resazurin susceptibility screen), Inf. I; assay type: cell-based; settings: Lomentospora prolificans, 37 °C, 48 hours, resa time 17 hours
Method: as §1

[10] = tested on: Mucor circinelloides IHEM21105; test: Antifungal activity in vitro (resazurin susceptibility screen), Inf. L; assay type: cell-based; settings: 27 °C, 48 hours, resa time 17 hours
Method: as §1

Rhizopus oryzae IHEM5223 = test: Antifungal activity in vitro (resazurin susceptibility screen), Inf. J; assay type: cell-based; settings: Rhizopus arrhizus, 37 °C, 24 hours, resa time 6 hours
Method: as §1

Structure (SMILES)	melting point [°C]	IC50 [1] [nM]	IC50 [2] [nM]	IC50 (Microsporum canis B68128) [nM]	IC50 [3] [nM]	IC50 [5] [nM]	IC50 [6] [nM]	IC50 [8] [nM]	IC50 [9] [nM]	IC50 [4] [nM]	IC50 [10] [nM]	IC50 [7] [nM]	IC50 (Rhizopus oryzae IHEM5223) [nM]	other results
CC(F)(F)c1ccc(C2NCc3c(Cl)cccc3-n3cccc32)cc1.Cl [Compound 3, (4R)-7-chloro-4-[4-(1,1-difluoroethyl)phenyl]-5,6-dihydro-4H-pyrrolo[1,2-a][1,4]-benzodiazepine.HCl]	206.3 to 206.8													pIC50 Inf. G [1]: 6.36; pIC50 Inf. F [2]: 5.26; pIC50 Inf. B (Microsporum canis B68128): 6.30; pIC50 Inf. C [3]: 6.96; pIC50 Inf. K ([4]; Rhizomucor miehei IHEM13391): 4.59; pIC50 Inf. A [5]: <4.19; pIC50 Inf. E [6]: 5.70; pIC50 Inf. H ([7]; Scedosporium apiospermum IHEM3817): 5.13; pIC50 Inf. D [8]: 5.58
CC(F)(F)c1ccc(C2NCc3c(Cl)cccc3-n3cccc32)cc1.Cl [Compound 2, (4S)-7-chloro-4-[4-(1,1-difluoroethyl)phenyl]-5,6-dihydro-4H-pyrrolo[1,2-a][1,4]-benzodiazepine.HCl]	206.7 to 207.6													pIC50 Inf. G [1]: 5.43; pIC50 Inf. F [2]: <4.19; pIC50 Inf. B (Microsporum canis B68128): 5.09; pIC50 Inf. C [3]: 5.82; pIC50 Inf. A [5]: <4.19; pIC50 Inf. E [6]: <4.19; pIC50 Inf. D [8]: <4.19
CC(F)(F)c1ccc(C2NCc3c(Cl)cc(F)cc3-n3cccc32)cc1.Cl (stereo not shown) [Compound 24, 7-chloro-4-[4-(1,1-difluoroethyl)phenyl]-9-fluoro-5,6-dihydro-4H-pyrrolo[1,2-a][1,4]-benzodiazepine.HCl]	240 to 240.7	1700	> 64600	7760	617	> 64600	11500	2630						
CC(F)(F)c1ccc(C2=NCc3c(Cl)ccc(Cl)c3-n3cccc32)cc1 [Compound 8, 7,10-dichloro-4-[4-(1,1-difluoroethyl)phenyl]-6H-pyrrolo[1,2-a][1,4]benzodiazepine]	162.3 to 163.5	60300	> 64600	3980	3020	> 64600	> 64600	> 64600						
CC(F)(F)c1ccc(C2=NCc3ccc(Cl)c(Cl)c3-n3cccc32)cc1 [Compound 22, 9,10-dichloro-4-[4-(1,1-difluoroethyl)phenyl]-6H-pyrrolo[1,2-a][1,4]benzodiazepine]	140.9 to 142.1	> 64600	> 64600	7760	7760	> 64600	> 64600	> 64600						
CC(F)(F)c1ccc(C2=NCc3c(F)cc(Cl)cc3-n3cccc32)cc1 [Compound 32, 9-chloro-4-[4-(1,1-difluoroethyl)phenyl]-7-fluoro-6H-pyrrolo[1,2-a][1,4]benzodiazepine]	145.3 to 147.4	1660	1290	1660	1660	6170	2000	2750	> 64600	> 64600	> 64600	> 64600	> 64600	
CC(F)(F)c1cc(C2=NCc3c(Cl)cc(Cl)cc3-n3cccc32)ccc1F [Compound 25, 7,9-dichloro-4-[3-(1,1-difluoroethyl)-4-fluorophenyl]-6H-pyrrolo[1,2-a][1,4]-benzodiazepine]	124.2 to 125.4	2190	> 64600	1580	1260	14100	1020	> 64600	501	> 64600	> 64600	407	> 64600	
CC(F)(F)c1ccc(C2=NCc3c(F)cc(F)cc3-n3cccc32)cc1 [Compound 18, 4-[4-(1,1-difluoroethyl)phenyl]-7,9-difluoro-6H-pyrrolo[1,2-a][1,4]benzodiazepine]		1100	1620	2140	148	8130	501	2340	794	50100	> 64600	> 64600	> 64600	
CC(F)(F)c1cc(C2=NCc3c(F)cc(F)cc3-n3cccc32)ccc1F [Compound 23, 4-[3-(1,1-difluoroethyl)-4-fluorophenyl]-7,9-difluoro-6H-pyrrolo[1,2-a][1,4]-benzodiazepine]	143.2 to 144.3	794	> 64600	417	129	9550	537	3630	100	> 64600	> 64600	182	> 64600	
CC(F)(F)c1ccc(C2=NCc3cc(Cl)cc(Cl)c3-n3cccc32)cc1 [Compound 6, 8,10-dichloro-4-[4-(1,1-difluoroethyl)phenyl]-6H-pyrrolo[1,2-a][1,4]benzodiazepine]	132.1 to 134.2	2450	1410	17400	5890	2630	933	> 64600		> 64600	> 64600	> 64600	> 64600	
Cc1cc(Cl)cc2c1CN=C(c1ccc(C(C)(F)F)cc1)c1cccn1-2 [Compound 16, 9-chloro-4-[4-(1,1-difluoroethyl)phenyl]-7-methyl-6H-pyrrolo[1,2-a][1,4]-benzodiazepine]	89.6 to 91.2	1660	724	2000	617	3800	1700	10700	1200	> 64600	> 64600	10200	> 64600	
CC(F)(F)c1cc(C2=NCc3c(F)cccc3-n3cccc32)ccc1F [Compound 20, 4-[3-(1,1-difluoroethyl)-4-fluorophenyl]-7-fluoro-6H-pyrrolo[1,2-a][1,4]benzodiazepine]		794	> 64600	513	145	> 64600	112	12900	158	26900	> 64600	575	> 64600	
CC(F)(F)c1ccc(C2=NCc3c(F)cccc3-n3cccc32)cc1 [Compound 15, 4-[4-(1,1-difluoroethyl)phenyl]-7-fluoro-6H-pyrrolo[1,2-a][1,4]benzodiazepine]		251	> 64600	490	42.7	> 64600	224	631	2510	> 64600	> 64600	> 64600	33900	
